In patent US7175990B2, “Method of determining endometrial receptivity” (The Regents of the University of California, priority 2002, dated 2007):

Legend:
[1] = system: hatched mouse blastocysts; experiment: Binding of selectin ligand-coated beads to hatched mouse blastocysts under shear stress; format: cell-based; settings: neoglycolipid-coated 4-μm polystyrene beads
[2] = system: explants of the human chorionic villous tree (trophoblast L-selectin); experiment: Binding of selectin ligand-coated beads to first-trimester villous explant cultures under shear stress; format: cell-based; settings: neoglycolipid-coated beads; cytotrophoblast column remnants and syncytiotrophoblasts
Procedure: Neoglycolipids were prepared by reductive amination of dipalmitoyl phosphatidylacetaldehyde with the aminoethyl glycoside of either sLe^x or 6-sulfo sLe^x 30 and dissolved in methanol (1 μg/μl). Blue 4-μm polystyrene latex beads (Interfacial Dynamics Corporation) were washed three times with ethanol, then resuspended in this solvent (1.2×10^8 beads/200 μl). Twenty-five micrograms of glycolipid was added, and the mixture was evaporated under nitrogen. Coated beads were washed three times in 1% BSA/PBS, then incubated with 3% BSA/PBS (2 h, room temperature). The beads were resuspended in 1 ml of 1% BSA/culture medium. Control beads were coated with phosphatidyl choline or used without coating.
Forty-eight first-trimester villous explant cultures were established (4 from 12 placentas; 2 experiments). After 24 h, the culture medium was removed, and 200 μl of a suspension of 2.4×10^7 beads in medium was added. Six explants were incubated with either experimental or control beads. Six other explants were pre-incubated with DREG-56 (30 min), then washed three times with medium before adding 6-sulfo sLe^x-coated beads. The explants were placed inside an incubator on a platform shaker (1 h; 20 cycles/min). Afterwards, bead suspensions were aspirated and explants were fixed in 3.8% paraformaldehyde (1 h, room temperature), washed three times in PBS (4° C.), and examined with a stereomicroscope. […]

L-selectin = settings: compared with sLe^x; cited from earlier work

For `CC(=O)NC1C(O)CC(OC2C(O)C(CO)OC(OC3C(CO)OC(O)C(NC(C)=O)C3OC3OC(C)C(O)C(O)C3O)C2O)(C(=O)O)OC1C(O)C(O)CO` (centres unmarked) [sLe^x, Siaα2→3Galβ1→4[Fucα1→3]GlcNAc], the “binding of ligand-coated beads to hatched mouse blastocysts” value [1] was “bound” and the “binding of ligand-coated beads to human villus explants / trophoblasts” value [2] was “in fewer numbers”.
For “Siaα2→3Galβ1→4[Fucα1→3][SO3→6]GlcNAc [6-sulfo sLe^x]”, the “binding of ligand-coated beads to hatched mouse blastocysts” value [1] is listed as “bound”, the “tightness of L-selectin binding, 6-sulfo sLe^x versus sLe^x” value (L-selectin) is listed as “more tightly” and the “binding of ligand-coated beads to human villus explants / trophoblasts” value [2] is listed as “bound”.
